Test results as given in US20260167622A1, “PAN-KRAS DEGRADING AGENT, AND PREPARATION METHOD THEREFOR AND USE THEREOF” (LEADINGTAC PHARMACEUTICAL (SHAOXING) CO., LTD., priority 2022, published 2026).

Legend:
Type in all cases: cell-based
[1] = target: T1, KRAS G12V protein in SW620 cells (Homo sapiens, UniProt P01116, G12V); assay: KRAS degradation assay (Western Blot) in SW620 cells; details: for DC50: 24 h; for Dmax: SW-620, 24 h
T1 construct: endogenous in cells; host or cells: SW620
How it was run: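 5×10^5 cells/well; cpd 0.03–3000 nM final, 0.25% DMSO, 24 h, 37 °C/5% CO2. RIPA lysis, 5 µg protein/lane, anti-KRAS WB, β-actin loading ref. DC50/Dmax by nonlinear fit.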

[2] = target: T2, KRAS WT (expanded) protein in MKN1 cells (Homo sapiens, UniProt P01116); assay: KRAS degradation assay (Western Blot) in MKN1 cells; details: for DC50: 24 h; for Dmax: MKN-1, 24 h
T2 construct: endogenous in cells; host or cells: MKN1 (MKN-1)
Source text: (§1) Test Example 5: KRAS G12C, KRAS G12D, KRAS G12V, KRAS G13D, and KRAS WT (Expanded) Degradation Assays
(§2) The degradation effect of the compounds on KRAS was investigated on KRAS G12C mutant human non-small cell lung cancer cell NCI-H358, KRAS G12D mutant human metastatic pancreatic cancer cell AsPc-1, KRAS G12D mutant human lung cancer cell A427, KRAS G12V mutant human colorectal cancer cell SW620, KRAS G12V mutant human lung cancer cell SW900, KRAS G13D mutant human colorectal cancer epithelial cell DLD-1, and KRAS WT human gastric cancer cell MKN-1. The specific procedures were as follows: 0.95 mL of cells were seeded into each well of a 24-well cell culture plate to achieve a cell density of 5×10^5 cells/well; and the cell plate was incubated in an incubator at 37° C. with 5% CO2 overnight. Then 50 μL of the compound solution after dilution was added to each of the wells with the corresponding cells, so that the final concentration of the compound was in a range of 0.03-3000 nM. The final concentration of DMSO was 0.25%. After the compounds were added, the cell plate was incubated in an incubator at 37° C. with 5% CO2 for 24 h. The culture medium in the 24-well cell culture plate was then removed, and the plate was washed twice with 1×PBS (KeyGEN). 120 μL of RIPA (strong) lysis buffer (Beyotime) (supplemented with 1 mM phenylmethylsulfonyl fluoride, a protease inhibitor mixture (Beyotime), and a protease phosphatase inhibitor mixture (Beyotime)) was added to lyse adherent SW900 cells at the bottom of the cell culture plate. After the plate was left to stand on ice for 30 min, the protein lysate in each well was transferred to a 1.5 mL centrifuge tube and centrifuged at 15000 g for 20 min at 4° C. The cell lysate supernatants after centrifugation were cryopreserved in a refrigerator at −80° C. for later use.
(§3) After the samples of the cell lysate supernatants that had been prepared were thawed from the refrigerator at −80° C., the total protein concentrations of the cell lysates were determined using a BCA protein quantification kit (Tiangen). The total protein concentrations of the samples were then adjusted to 0.5 μg/μL with PBS and 5×SDS-PAGE protein loading buffer (Beyotime), and the samples were incubated in a water bath at 100° C. for 15 min. The samples were then incubated in an ice bath for 5 min and centrifuged at 14000 g for 1 min at 4° C., and the supernatants were mixed well as loading samples for the Western Blot assay. The samples were loaded into wells of a 10% precast gel (KeyGEN) with a loading volume of 10 μL (total protein: 5 μg), a sufficient Tris-MOPS-SDS running buffer (Adamas) was added, and then electrophoresis was performed at a constant voltage of 120 V for 55 min. After the electrophoresis, the proteins on the gel were transferred to PVDF membranes at a constant current of 250 mA for 55 min. After the membrane transfer, the PVDF membranes were incubated in 1× Quick Block blocking buffer (Beyotime)at room temperature for 30 min. After the blocking, the PVDF membranes were separately incubated at 4° C. overnight with the KRAS antibody (Abcam) diluted in a ratio of 1:1000 and the β-actin antibody (Abcam) diluted in a ratio of 1:2000 in 5% BSA as the diluent, and then washed with 1×TBST buffer (2.4 g of Tris, 8.8 g of NaCl, 1.5 mL of Tween 20, with pH adjusted to 7.4, with the volume brought to 1 L) 3 times for 10 min/time. The membranes were incubated with a secondary antibody (Abcam) diluted in 5% BSA at room temperature for 2 h, and then washed with 1×TBST buffer 3 times for 10 min/time. Finally, the membranes were incubated with Clarity Western ECL Substrate (BIO-RAD) for 5 min for luminescence and color development, and a ChemiScope 6200 Touch chemiluminescence imaging system (Clinx) was used for color development and protein mapping. Gray value analysis of the protein maps was performed using the chemiluminescence analysis software (Clinx). […]

[3] = target: T3, KRAS G12C protein in NCI-H358 cells (Homo sapiens, UniProt P01116, G12C); assay: KRAS degradation assay (Western Blot) in NCI-H358 cells; details: 24 h
T3 construct: endogenous in cells; host or cells: NCI-H358
Source text: as §1, §2, §3

[4] = target: T4, KRAS G13D protein in DLD-1 cells (Homo sapiens, UniProt P01116, G13D); assay: KRAS degradation assay (Western Blot) in DLD-1 cells; details: 24 h
T4 construct: endogenous in cells; host or cells: DLD-1
How it was run: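 Western blot read-out: KRAS band gray value divided by β-actin, compared with DMSO control to give degradation rate. DC50 and Dmax came from log concentration–response fits after 24 h compound exposure (0.03–3000 nM final, 0.25% DMSO) at 37 °C, 5% CO2.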

[5] = target: T5, KRAS G12D protein in AsPc-1 cells (Homo sapiens, UniProt P01116, G12D); assay: KRAS degradation assay (Western Blot) in AsPc-1 cells; details: for DC50: 24 h; for Dmax: ASPC1, 24 h
T5 construct: endogenous in cells; host or cells: AsPc-1
Source text: as §1, §2, §3

[6] = tested on: KRAS G12D mutant human metastatic pancreatic cancer cell AsPc-1; assay: 3D cell proliferation inhibition assay, AsPc-1; details: ASPC1, 168 h, 3D culture, 7 days, CTG
How it was run: (§4)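 Cells seeded in low-adsorption plates at 5×10^2 cells/well (MKN1 1×10^3) with compounds at final 10000–0.026 nM, 0.2% DMSO, 3D culture 7 days at 37 °C. Viability by CellTiter-Glo luminescence; inhibition normalised to DMSO and medium-only controls, IC50 from nonlinear log-concentration fit.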

[7] = tested on: KRAS G12C mutant human non-small cell lung cancer cell NCI-H358; assay: 3D cell proliferation inhibition assay, NCI-H358; details: NCI-H358, 168 h, 3D culture, 7 days, CTG
How it was run: as §4

[8] = tested on: KRAS G12V mutant human colorectal cancer cell SW620; assay: 3D cell proliferation inhibition assay, SW620; details: SW-620, 168 h, 3D culture, 7 days, CTG
How it was run: as §4

[9] = tested on: KRAS G13D mutant human colorectal cancer epithelial cell DLD-1; assay: 3D cell proliferation inhibition assay, DLD-1; details: DLD-1, 168 h, 3D culture, 7 days, CTG
How it was run: as §4

[10] = tested on: KRAS WT human gastric cancer cell MKN1; assay: 3D cell proliferation inhibition assay, MKN1; details: MKN-1, 168 h, 3D culture, 7 days, CTG
How it was run: as §4

T5 sequence (P01116 1-188 isoform P01116-2 G12D): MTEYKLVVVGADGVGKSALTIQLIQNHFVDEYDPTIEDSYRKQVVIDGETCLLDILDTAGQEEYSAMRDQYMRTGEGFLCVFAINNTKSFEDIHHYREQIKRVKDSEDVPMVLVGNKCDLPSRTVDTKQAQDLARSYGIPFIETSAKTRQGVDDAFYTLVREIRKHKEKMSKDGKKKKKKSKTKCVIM
T4 sequence (P01116 1-188 isoform P01116-2 G13D): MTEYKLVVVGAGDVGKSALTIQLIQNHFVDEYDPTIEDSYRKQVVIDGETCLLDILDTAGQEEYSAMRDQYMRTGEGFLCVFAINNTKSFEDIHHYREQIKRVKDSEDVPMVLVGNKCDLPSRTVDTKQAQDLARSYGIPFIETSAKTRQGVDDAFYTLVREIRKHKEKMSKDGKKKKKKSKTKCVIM
T3 sequence (P01116 1-188 isoform P01116-2 G12C): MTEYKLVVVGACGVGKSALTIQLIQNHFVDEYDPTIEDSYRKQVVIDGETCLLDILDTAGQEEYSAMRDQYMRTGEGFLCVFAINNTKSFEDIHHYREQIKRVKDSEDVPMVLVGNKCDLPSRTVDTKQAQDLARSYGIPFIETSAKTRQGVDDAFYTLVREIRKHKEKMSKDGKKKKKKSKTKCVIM
T2 sequence (P01116 1-188 isoform P01116-2): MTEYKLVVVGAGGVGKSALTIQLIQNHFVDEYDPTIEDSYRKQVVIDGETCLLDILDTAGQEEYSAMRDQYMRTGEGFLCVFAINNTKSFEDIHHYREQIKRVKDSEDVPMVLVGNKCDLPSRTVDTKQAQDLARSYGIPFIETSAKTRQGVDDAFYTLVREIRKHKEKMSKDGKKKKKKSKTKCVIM
T1 sequence (P01116 1-188 isoform P01116-2 G12V): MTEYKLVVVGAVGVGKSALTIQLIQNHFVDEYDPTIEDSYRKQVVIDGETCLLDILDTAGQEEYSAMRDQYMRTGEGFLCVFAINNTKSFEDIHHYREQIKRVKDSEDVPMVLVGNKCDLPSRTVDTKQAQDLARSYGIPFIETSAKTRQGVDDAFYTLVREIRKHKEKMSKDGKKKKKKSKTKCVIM

DC50 [1] [nM]	Dmax [1] [%]	DC50 [2] [nM]	Dmax [2] [%]	DC50 [3] [nM]	Dmax [3] [%]	DC50 [4] [nM]	Dmax [4] [%]	DC50 [5] [nM]	Dmax [5] [%]	IC50 [6] [nM]	IC50 [7] [nM]	IC50 [8] [nM]	IC50 [9] [nM]	IC50 [10] [nM]	SMILES
7.48	99.5	1.25	99.5	1.11	98.2	4.39	100	5.91	99.6	12.1	4.66	3.76	3.9	22.6	[2H]C([2H])([2H])Oc1ccc(C(=O)N2CCC3(CCC(CN4CCN(C[C@@H](C)COc5nc(N6CCC[C@@](C)(O)C6)c6cnc(-c7cc(O)cc8ccc(F)c(C#C)c78)c(F)c6n5)CC4)CC3)CC2)cc1N1CCC(=O)NC1=O [Example 164, 1-(5-(9-((4-((R)-3-((7-(8-ethynyl-7-fluoro-3-hydroxynaphthalen-1-yl)-8-fluoro-4-((R)-3-hydroxy-3-methylpiperidin-1-yl)pyrido[4,3-d]pyrimidin-2-yl)oxy)-2-methylpropyl)piperazin-1-yl)methyl)-3-azaspiro[5.5]undecane-3-carbonyl)-2-(methoxy-d3)phenyl)dihydropyrimidine-2,4(1H,3H)-dione]
0.99	100	0.28	97.4	1.7	88.9	2.05	100	18.7	93.3	6.48	2.33	1.92	3.55	2.33	C#Cc1c(F)ccc2cc(O)cc(-c3ncc4c(N5CCC[C@@](C)(O)C5)nc(OC[C@H](C)CN5CCN(CC6CCC7(CC6)CCN(C(=O)c6ccc(C)c(N8CCC(=O)NC8=O)c6)CC7)CC5)nc4c3F)c12 [Example 47, 1-(5-(9-((4-((R)-3-((7-(8-ethynyl-7-fluoro-3-hydroxynaphthalen-1-yl)-8-fluoro-4-((R)-3-hydroxy-3-methylpiperidin-1-yl)pyrido[4,3-d]pyrimidin-2-yl)oxy)-2-methylpropyl)piperazin-1-yl)methyl)-3-azaspiro[5.5]undecane-3-carbonyl)-2-methylphenyl)dihydropyrimidine-2,4(1H,3H)-dione]
0.87	100	1.26	100	3.14	86.7	2.36	100	–	–	9.03	18.2	2.81	5.49	2.01	C#Cc1c(F)ccc2cc(O)cc(-c3ncc4c(N5CCC[C@@](C)(O)C5)nc(OC[C@H](C)CN5CCN(CC6CCC7(CC6)CCN(C(=O)c6ccc(OC)c(N8CCC(=O)NC8=O)c6)CC7)CC5)nc4c3F)c12 [Example 46, 1-(5-(9-((4-((R)-3-((7-(8-ethynyl-7-fluoro-3-hydroxynaphthalen-1-yl)-8-fluoro-4-((R)-3-hydroxy-3-methylpiperidin-1-yl)pyrido[4,3-d]pyrimidin-2-yl)oxy)-2-methylpropyl)piperazin-1-yl)methyl)-3-azaspiro[5.5]undecane-3-carbonyl)-2-methoxyphenyl)dihydropyrimidine-2,4(1H,3H)-dione]
2.35	97.7	0.76	99.3	2.65	96.1	1.96	99.9	5.53	100	6.31	2.49	2.59	6.28	6.7	[2H]C([2H])([2H])Oc1ccc(C(=O)N2CCC3(CCC(CN4CCN(CC5(COc6nc(N7CCC[C@@](C)(O)C7)c7cnc(-c8cc(O)cc9ccc(F)c(C#C)c89)c(F)c7n6)CC5)CC4)CC3)CC2)cc1N1CCC(=O)NC1=O [Example 170, (R)-1-(5-(9-((4-((1-(((7-(8-ethynyl-7-fluoro-3-hydroxynaphthalen-1-yl)-8-fluoro-4-(3-hydroxy-3-methylpiperidin-1-yl)pyrido[4,3-d]pyrimidin-2-yl)oxy)methyl)cyclopropyl)methyl)piperazin-1-yl)methyl)-3-azaspiro[5.5]undecane-3-carbonyl)-2-(methoxy-d3)phenyl)dihydropyrimidine-2,4(1H,3H)-dione]
